Results published in PMC3561128, “Preclinical evaluation of carbon-11 and fluorine-18 sulfonamide derivatives for in vivo radiolabeling of erythrocytes” (EJNMMI Research, 2013).
Like-named read-outs stand apart in the source and are kept apart here.

How the values were obtained:
hCA I = hCA I (Homo sapiens, UniProt P00915); experiment: CA-catalyzed CO2 hydration, stopped-flow inhibition assay; assay type: biochemical; conditions: human (cloned) isozyme; CO2 hydration reaction at 20°C; n = 3
Experimental: (§1) Phenol red (0.2 mM) was used as indicator, working at the absorbance maximum of 557 nm, with 10 mM Hepes as buffer (pH 7.5) and 0.1 M Na2SO4 (for maintaining constant ionic strength) at 25°C following the CA-catalyzed CO2 hydration reaction for a period of 10 to 100 s (the uncatalyzed reaction needs around 60 to 100 s under assay conditions, whereas the catalyzed reactions take around 6 to 10 s). The CO2 concentrations ranged from 1.7 to 17 mM for the determination of kinetic parameters. Each compound was tested in the concentration range between 0.01 nM to 100 μM. The uncatalyzed rates were determined in the same manner and subtracted from the total observed rates. Stock solutions of the compounds (0.1 mM) were prepared in distilled water with 10% to 20% (v/v) DMSO (which is non-inhibitory at these concentrations), and dilutions up to 0.01 nM were made with distilled water. Inhibitor and enzyme solutions were preincubated together for 15 min at room temperature prior to the assay, in order to allow the formation of enzyme-inhibitor complex. The inhibition constants were obtained by nonlinear least square methods using PRISM 3 (GraphPad Software, La Jolla, CA, USA), and they represent the mean from at least three different determinations.

hCA II = hCA II (Homo sapiens, UniProt P00918); experiment: as above; assay type: biochemical; conditions: human (cloned) isozyme; CO2 hydration reaction at 20°C; n = 3
Experimental: as §1

[1] = Log D (1-octanol/phosphate buffer pH 7.4), shake flask method; assay type: physicochemical
Experimental: Determination of the distribution coefficient (log D1-octanol/phosphate buffer pH 7.4), was carried out by a shake flask method. An aliquot (25 μL) of the tracer agents ^18F]-(3), ^11C]-(4), ^18F]-(5), or ^11C]-(6) (185 to 555 kBq/mL) was added to a polypropylene tube (5 mL; Sarstedt, Nümbrecht, Germany) containing 2 mL of 0.025 M sodium phosphate buffer pH 7.4 and 2 mL of 1-octanol. The tube was vortexed for 2 min at room temperature followed by centrifugation at 3,000 rpm for 10 min (Eppendorf centrifuge 5810, Eppendorf, Westbury, NY, USA). Aliquots of 50 μL of the 1-octanol phase and 500 μL of the phosphate buffer phase were pipetted into separate tared Eppendorf tubes with adequate care to avoid cross contamination between the two phases. The samples were weighed, and radioactivity was quantified using an automated gamma counter. The experiments were carried out sixfold.

RBCs [2] = tested on: RBCs; set-up: method as in PMID 1647382, PMID 1647383; conditions: rats, 24 h p.i.; cited from earlier work
RBCs [3] = tested on: RBCs; set-up: method as in PMID 1647382, PMID 1647383; conditions: human volunteers, 24 h p.i.; cited from earlier work

Chain of hCA I (P00915 whole entry): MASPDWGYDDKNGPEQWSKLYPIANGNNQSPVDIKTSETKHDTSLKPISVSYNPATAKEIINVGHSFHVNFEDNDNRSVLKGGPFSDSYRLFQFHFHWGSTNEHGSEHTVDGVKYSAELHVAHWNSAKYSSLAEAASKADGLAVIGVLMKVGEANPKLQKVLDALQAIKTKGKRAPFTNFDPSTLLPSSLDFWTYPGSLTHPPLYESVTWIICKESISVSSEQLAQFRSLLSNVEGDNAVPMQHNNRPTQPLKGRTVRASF

Ki (hCA I) | Ki (hCA II) | logD [1] | Structure (SMILES) | Activity associated with RBCs (RBCs [2]) | Activity associated with RBCs (RBCs [3])
30.9 µM | 0.336 µM | 0.32 | NS(=O)(=O)c1ccc(OCCF)cc1 [(5)] |  | 
 |  |  | NS(=O)(=O)c1ccc(I)cc1 [p-iodobenzenesulfonamide] | about 50 % of the injected dose | more than 88 % of the ID
